Read-outs that look alike come from different tables or passages of the source.
Tests used:
[1] = test system: male OFl mice; assay: Pentetrazole seizure (mortality after i.p. pentetrazole 125 mg/kg); format: in vivo; conditions: for ED50: Mus musculus, po, 0.25 h
Experimental: This test was carried out on batches of 10 male OFl mice which had fasted since the day before and were placed in individual cages, in accordance with the method of Cheymol (J.) Acta. Pharmacol., (1950), 2, 1-55.
The treatments were carried out perorally 15 minutes before intraperitoneal (i.p.) injection of a solution of pentetrazole (125 mg/kg).
The mortality is recorded 3 hours after this injection.
It is to be noted that the 50% effective doses (ED50), where these have been determined, were calculated by the method of MOOD (J. Am. Statist. Assoc., (1965), 60, 967-78).

[2] = test system: mice; assay: β-Mercaptopropionic acid seizure; format: in vivo; conditions: for ED50: Mus musculus, po, 0.25 h, read-out: β-Mercaptopropionic acid seizure, ED50; for β-Mercaptopropionic acid seizure, % protection: at 400 mg/kg, peroral, 15 minutes
Experimental: β-Mercaptopropionic acid seizure
β-Mercaptopropionic acid is an inhibitor of glutamatedecarboxylase (GAD), which is an enzyme which catalyses the conversion of glutamate to γ-aminobutyric acid (GABA). Its action thus manifests itself in a lowering of the GABA level and the occurrence of general tonico-clonic seizures 3 to 4 minutes after it has been administered. β-Mercaptopropionic acid was administered to mice intraperitoneally at a dose of 40 mg/kg.

[3] = test system: male Swiss mice; assay: Maximum electrical seizure; format: in vivo; conditions: for ED50: Mus musculus, po, 0.25 h, read-out: Maximum electrical seizure, ED50; for Maximum electrical seizure, % protection: peroral, 15 minutes
Excerpt: Maximum electrical seizure
The technique used is that recommended by GOODMAN (L. S.), SING-GREWALD (M.), BROWN (V. C.) and […] (E. A.), Am.
The animals tested are male Swiss mice grouped into batches of 10. The normal threshold of the electric shock which is capable of causing tonic extension of the front paws is first determined for each animal.

[4] = test system: mouse; assay: Ouabain seizure; format: in vivo; conditions: po, 0.25 h, read-out: Ouabain seizure, ED50
Experimental: Ouabain was administered intra-ventricularly at a dose of 5 γ/mouse in a volume of 0.02 ml.

[5] = test system: mice; assay: Anoxia as a result of confinement; format: in vivo; conditions: Mus musculus, ip, read-out: Anoxia as a result of confinement, % increase in the survival time
Experimental: Anoxia as a result of confinement
Mice (in batches of 20) are placed in a 200 cm^3 hermetically sealed chamber (a wide-mouthed glass vessel) which is under normal pressure and has a normal content of atmospheric oxygen. All of the treatments are administered intraperitoneally immediately before introduction into the chamber. The animal is considered to be dead at the moment when breathing stops.
Since the wide-mouthed vessels chosen are very small, the motor activity of the animals is extremely low and this eliminates, in principle, the possibility of a positive result due to a sedative effect.
Therefore, the percentage increase in the survival time of the treated animals is noted, relative to the batch.

[6] = Sedative activity: Rotarod test; format: in vivo, mice (male); conditions: mouse, in vivo, po
Experimental: (§1) This test is used for the purpose of assessing the ability of the animals to coordinate their movements. It uses a wooden cylinder which has a diameter of 4.8 cm and revolves at a speed of 4 revolutions/minute. The test is carried out on male mice weighing about 22 g. The products are administered perorally (p.o.) to batches of 10 animals per dose. The animals are placed on the apparatus 15 minutes after administration of the product. The percentage of mice which lose their equilibrium reflex, that is to say which become incapable of retaining their balance on the cylinder for a period of 2 minutes, is noted.
(§2) Using the regression straight line method, a 50% neurotoxic dose (NTD 50) is calculated, which thus expresses the average level of the first neuromuscular effects under the influence of the studied product.

[7] = Acute toxicity, peroral; conditions: mouse, in vivo, po
Experimental: In order to locate the boundary separating the pharmacological effects from the toxicity of the products, a very approximate assessment of the toxicity was carried out on mice (batches of 10 animals) after peroral treatment.

[8] = test system: male mice; assay: Sedative activity: Rotarod test; format: in vivo; conditions: at 600 mg/kg, peroral, mice
Experimental: as §1, §2

[9] = Table IV, mice, measured 15 minutes after peroral treatment, read-out: Pentetrazole seizure, ED50
[10] = β-mercaptopropionic acid 40 mg/kg i.p., mice, 15 minutes after peroral treatment
[11] = mice, measured 15 minutes after peroral treatment
[12] = ouabain 5 γ/mouse intra-ventricularly, measured 15 minutes after peroral treatment
[13] = at 50 mg/kg, intraperitoneal, mice
[14] = read-out: Pentetrazole seizure, ED50
[15] = peroral, 15 minutes after administration, male mice, read-out: Sedative activity, Rotarod test, ED50
[16] = read-out: DE 50, Pentetrazole crisis test
[17] = Table III, mice, peroral, 15 minutes after administration, read-out: DE 50, Pentetrazole crisis test

Structure (SMILES)	ED50 [1, 9] [mg/kg]	ED50 [2, 10] [mg/kg]	ED50 [3, 11] [mg/kg]	ED50 [4, 12] [mg/kg]	TD50 at 0.25 h [6] [mg/kg]	ED50 [1, 14] [mg/kg]	further results
CC(C)(Cl)C1(C(N)=O)CCCCC1 [Example 39, 1-(1-chloro-1-methylethyl)-1-cyclohexyl-carboxamide]	66	63					
CC(C)(C)C1(C(N)=O)CCCCC1 [Example 42, 1-tert-butyl-1-cyclohexyl-carboxamide]	79	95					
C=C(Cl)CC1(C(N)=O)CCCCC1 [Example 24, 1-(2'-chloro-2'-propenyl)-1-cyclohexyl-carboxamide]	57	64	101	96	125		ILS at 50 mg/kg [5, 13]: 0%; mortality ([7]; 500 mg/kg): 20%
NC(=O)C1(Cc2ccccc2)CCCCC1 [Example 32]	32	200	115	200	125		ILS at 50 mg/kg [5, 13]: 0%
O=C(CBr)CC1(C(=O)O)CCCCC1 [Example 47, 1-bromoacetonyl-1-cyclohexyl-carboxylic acid]							Pentetrazole seizure, % protection ([1]; at 395 mg/kg, peroral, 15 minutes, mice): 0%; β-Mercaptopropionic acid seizure, % protection ([2]; mice): 30%; ILS at 130 mg/kg ([5]; at 130 mg/kg, intraperitoneal, mice): 24%; mortality ([7]; at 790 mg/kg, peroral, mice): 30%
CC1(C(N)=O)CCCCC1 [Example 28]	178	100	311		425		ILS at 70 mg/kg ([5]; at 70 mg/kg, intraperitoneal, mice): 30%; mortality ([7]; 752 mg/kg): 50%
O=C([O-])C1(Cc2ccccc2)CCCCC1.[Na+]						116	ED50 [3]: 431 mg/kg; ED50 ([4]; Mus musculus): 638 mg/kg; ED50 [2]: 257 mg/kg; ILS at 170 mg/kg [5]: 44%; TD50 at 0.25 h [6, 15]: 650 mg/kg; mortality ([7]; 1000 mg/kg, at 1,000 mg/kg, peroral, mice): 20%
O=C(O)C1(CC#CBr)CCCCC1 [Example 35, 1-(3-bromo-2-propynyl)-1-cyclohexyl-carboxylic acid]	335				245		Maximum electrical seizure, % protection ([3]; at 735 mg/kg, mice): 20%; β-Mercaptopropionic acid seizure, % protection ([2]; mice): 30%; mortality ([7]; at 735 mg/kg, peroral, mice): 0%
NC(=O)C1(CCOc2ccccc2)CCCCC1 [Example 54, 1-(2-phenoxyethyl)-1-cyclohexyl-carboxamide]	198	86			160		
CC(=O)CC1(C(=O)[O-])CCCCC1.[Na+] [Example 46, Sodium 1-acetonyl-1-cyclohexyl-carboxylate]		270		> 900		300	Rotarod test, % of failures [8]: 0%
CC1(C(=O)[O-])CCCCC1.[Na+]						317	ED50 [3]: 563 mg/kg; ED50 ([4]; Mus musculus): 600 mg/kg; ED50 [2]: 118 mg/kg; ILS at 160 mg/kg [5]: 29%; TD50 at 0.25 h [6, 15]: 1020 mg/kg; mortality ([7]; at 1882 mg/kg, peroral, mice): 50%
CCCC(CCC)C(=O)[O-].[Na+] [Depakene, sodium dipropyl-acetate, reference compound]							ED50 [1, 16]: 142 mg/kg
CC(C)C1(C(=O)O)CCCCC1 [Example 16]							ED50 [1, 17]: 110 mg/kg
C=CC1(C(=O)[O-])CCCCC1.[Na+] [Example 37, Sodium 1-vinyl-1-cyclohexyl-carboxylate]						95	
COCC1(C(=O)O)CCCCC1 [Example 55]	190			950			Maximum electrical seizure, % protection ([3]; at 190 mg/kg, mice): 0%; Rotarod test, % of failures [8]: 0%
C#CCC1(C(N)=O)CCCCC1 [Example 30]			91	170		65	TD50 at 0.25 h [6, 15]: 125 mg/kg; mortality ([7]; at 500 mg/kg, peroral, mice): 20%
O=C([O-])C1(CC(Br)=CBr)CCCCC1.[Na+]						240	Maximum electrical seizure, % protection ([3]; at 600 mg/kg, mice): 60%; ED50 ([4]; Mus musculus): > 900 mg/kg; ED50 [2]: 340 mg/kg; ILS at 190 mg/kg [5]: 50%; TD50 at 0.25 h [6, 15]: 280 mg/kg; mortality ([7]; at 600 mg/kg, peroral, mice): 0%
C=CCC1(C(N)=O)CCCCC1 [Example 27]	20	38	55	66	75		ILS at 50 mg/kg [5, 13]: 0%; mortality ([7]; 500 mg/kg): 100%
CC(C)(C)C1(C(=O)[O-])CCCCC1.[Na+] [Example 41, Sodium 1-tert-butyl-1-cyclohexyl-carboxylate]							ED50 [1, 16]: 131 mg/kg
CCC1(C(=O)O)CCCCC1 [Example 15]							ED50 [1, 17]: 120 mg/kg
COCC1(C(N)=O)CCCCC1 [Example 31]	195		200	250	300		mortality ([7]; 500 mg/kg): 0%
NC(=O)C1(CBr)CCCCC1 [Example 26]		46				75	ILS at 50 mg/kg [5]: 6%; TD50 at 0.25 h [6, 15]: 125 mg/kg; mortality ([7]; at 500 mg/kg, peroral, mice): 0%
CC(C)C1(C(N)=O)CCCCC1 [Example 29]	15	12	70	31	35		ILS at 25 mg/kg ([5]; at 25 mg/kg, intraperitoneal, mice): 16%; mortality ([7]; 500 mg/kg): 100%

Reference: US4283420A, “Pharmaceutically active cyclohexyl compounds and their preparation” (Labaz, priority 1978, dated 1981)
